According to publication PMC3121759 (PLoS ONE, 2011):
“And” between values parts separate entries of the source, which are not always exact repeats. Equal entries are not always repeated. Where two headings read alike, the source gives them in different places.

Legend:
[1] = target: T1, GlyT-1 (Rattus norvegicus, UniProt P28572); test: Drug inhibition of [3H]CHIBA-3007 binding to rat brain membranes; conditions: [3H]CHIBA-3007 (1 nM)
T1 construct: the tissues of whole brains or each specific brain region were homogenized; from tissue; host or cells: rat brain (whole brain or dissected regions; male Crl:CD (SD) rats)
T1 sequence (P28572 1-638): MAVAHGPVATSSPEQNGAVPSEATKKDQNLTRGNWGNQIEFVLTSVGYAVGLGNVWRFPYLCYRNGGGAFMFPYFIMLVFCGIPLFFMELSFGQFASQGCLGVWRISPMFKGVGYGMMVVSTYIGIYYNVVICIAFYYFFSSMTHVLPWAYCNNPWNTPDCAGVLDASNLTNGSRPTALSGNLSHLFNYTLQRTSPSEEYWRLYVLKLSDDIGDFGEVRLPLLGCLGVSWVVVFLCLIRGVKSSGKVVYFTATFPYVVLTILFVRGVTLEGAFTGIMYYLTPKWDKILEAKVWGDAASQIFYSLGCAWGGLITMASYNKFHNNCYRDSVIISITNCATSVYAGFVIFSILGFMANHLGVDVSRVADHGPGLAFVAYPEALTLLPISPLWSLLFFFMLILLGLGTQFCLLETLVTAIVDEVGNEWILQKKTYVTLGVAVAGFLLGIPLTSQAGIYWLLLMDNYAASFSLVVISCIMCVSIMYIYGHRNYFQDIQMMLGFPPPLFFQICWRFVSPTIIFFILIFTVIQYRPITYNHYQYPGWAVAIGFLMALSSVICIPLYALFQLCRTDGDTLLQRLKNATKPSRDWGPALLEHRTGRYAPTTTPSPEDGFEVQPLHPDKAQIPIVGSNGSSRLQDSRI
Protocol: The supernatant was discarded and the pellet was re-suspended, homogenized and centrifuged as above. The membrane pellet was washed and re-suspended in ice-cold HEPES buffer and was then centrifuged three times. The final pellet was re-suspended in 15 volumes of the buffer (120 mM NaCl, 2 mM KCl, 1 mM CaCl2, 1 mM MgCl2 10 mM HEPES, pH 7.5 at room temperature).
The binding reaction was terminated by rapid vacuum filtration onto Whatman GF/B glass filters pretreated with 0.5% polyethyleneimine (Sigma-Aldrich Co.) using a 24-channel cell harvester (Brandell, Gaithersburg, MD). The filters were washed with 5 mL of ice-cold assay buffer 3 times, and placed in vials with 4 mL scintillation cocktail. The radioactivity trapped by the filters was determined using a liquid scintillation counter (Beckman LS-6500; Beckman Coulter K.K., Tokyo, Japan).
(§1) The data are shown as the mean ± standard error of the mean (S.E.M.). The dissociation constant (Kd) and maximal binding (Bmax) values from saturation binding and the IC50 values from binding displacement by each drug were determined using the program GraphPad Prism (GraphPad Software, San Diego, CA). […] Correlation was analyzed by Pearson's Correlation Coefficient (PASW Statistics 19, Tokyo, Japan). Significance was set at p<0.05.

[2] = target: T1, GlyT-1; test: Inhibition of [14C]glycine uptake in rat brain membranes; assay type: biochemical
Protocol: The homogenate was centrifuged at 1,000 g for 10 min to remove nuclei and debris, and then the supernatant was centrifuged again at 20,000 g for 20 min (synaptosomal P2 fraction). The pellet was washed and re-suspended in ice-cold 0.32 M sucrose, buffered with 10 mM HEPES (pH 7.4) and centrifuged again at 20,000 g for 20 min (washed P2 fraction). The pellet was re-suspended in 10 volumes of assay buffer with the following composition: 10 mM HEPES buffer (pH 7.4) containing 140 mM NaCl, 5.5 mM KCl, 1.8 mM CaCl2, 0.8 mM MgSO4, 5 mM glucose and 5 mM L-alanine (HB). The protein concentrations were measured by using a DC protein assay kit (Bio-Rad Laboratories Inc., Tokyo, Japan).
Non-specific uptake was estimated in the presence of 30 µM SSR504734. […] The filters were washed by buffer, and the radioactivity trapped by the filters was determined using a liquid scintillation counter as described above.
as §1

[3] = target: T1, GlyT-1; conditions: cited from earlier work
[4] = test system: GlyT-1; conditions: cited from earlier work
[5] = target: T1, GlyT-1; test: Equilibrium saturation binding of [3H]CHIBA-3007 to rat brain membranes
Protocol: For saturation-binding isotherms, 6 grade-diluted concentrations of [^3H]CHIBA-3007 (0.3125–10 nM) were used. Specific binding of [^3H]CHIBA-3007 to rat brain membranes was saturable and rapid, and represented >90% of total binding over the concentration range of [^3H]CHIBA-3007 (Figure 2).
Figure 2 Specific binding of [^3H]CHIBA-3007 to rat brain membranes. Rat brain membranes were incubated with various concentrations of [^3H]CHIBA-3007 (0.3125–10 nM) for 120 min at room temperature. Nonspecific binding was estimated in the presence of 10 µM SSR504734. The results are from a typical experiment and values are the average of duplicate determinations. […] TB: total binding, NSB: nonspecific binding, SB: specific binding. The results are means ± S.E.M. of three independent experiments performed in duplicate. […] The data are the mean of three independent experiments performed in duplicate.
(§2) For the [^3H]CHIBA-3007-binding assay, the tissues of whole brains or each specific brain region were homogenized in 15 volumes (w/v) of 10 mM 4-(2-hydroxyethyl)-1- piperazineethanesulfonic acid (HEPES) at pH 7.4 for 30 s on ice. The homogenate was centrifuged at 40,000 g for 15 min at 4°C. The supernatant was discarded and the pellet was re-suspended, homogenized and centrifuged as above. The membrane pellet was washed and re-suspended in ice-cold HEPES buffer and was then centrifuged three times. The final pellet was re-suspended in 15 volumes of the buffer (120 mM NaCl, 2 mM KCl, 1 mM CaCl2, 1 mM MgCl2 10 mM HEPES, pH 7.5 at room temperature).
Assays of the binding of [^3H]CHIBA-3007 to rat brain membranes were performed. Aliquots of the rat brain membrane suspension (200 µL) were added in duplicate to a reaction mixture containing [^3H]CHIBA-3007 and the indicated concentrations of test drug in a final volume of 0.5 mL. Non-specific binding was estimated in the presence of 10 µM SSR504734, a potent and selective GlyT-1 inhibitor [34]. [3H]CHIBA-3007 binding was allowed to occur for 120 min at room temperature for the equilibrium saturation and inhibition studies. The binding reaction was terminated by rapid vacuum filtration onto Whatman GF/B glass filters pretreated with 0.5% polyethyleneimine (Sigma-Aldrich Co.) using a 24-channel cell harvester (Brandell, Gaithersburg, MD). The filters were washed with 5 mL of ice-cold assay buffer 3 times, and placed in vials with 4 mL scintillation cocktail. The radioactivity trapped by the filters was determined using a liquid scintillation counter (Beckman LS-6500; Beckman Coulter K.K., Tokyo, Japan).
as §1

[6] = target: T1, GlyT-1; test: Regional distribution of [3H]CHIBA-3007 binding in rat brain; conditions: [3H]CHIBA-3007 1 nM, seven rat brain regions
Protocol: After sacrificing the rats by decapitation, the brains were rapidly removed from the skulls. Whole brains or seven specific cerebral regions - the cerebral cortex, striatum, hippocampus, thalamus, midbrain, cerebellum and pons - dissected on ice by the method of Glowinski and Iversen were stored at −80°C until use for the assay.
as §2
Assays of the binding of [^3H]CHIBA-3007 to rat brain membranes were performed. […] The radioactivity trapped by the filters was determined using a liquid scintillation counter (Beckman LS-6500; Beckman Coulter K.K., Tokyo, Japan).

[7] = test system: GlyT-1; conditions: read-out: IC50 for [3H]glycine uptake; cited from earlier work
[8] = 120 min room temperature, mean ± S.E.M., n=3

Structure (SMILES): CN(CC[C@@H](Oc1ccc(C(F)(F)F)cc1)c1ccccc1)CC(=O)O (racemic) [Org24598, (R,S)-(±)N-methyl-N-[(4-trifluoromethyl)phenoxy]-3-phenylpropylglycine]
- Ki [1, 8]: 16.9 ± 3.1 nM
- IC50 [2]: 653 ± 154 nM

Structure (SMILES): COc1ccc2c(c1)CC[C@H](CN(C)CC(=O)O)[C@@H]2c1ccccc1 [Org25935]
- Type of interaction with binding of [3H]SB-733993 and [3H]GSK931145 [3]: uncompetitive interactions

Structure (SMILES): Cc1cccc(C)c1C(=O)N[C@@H](c1ccccc1)C1(N(C)C)CCCC1 [[^3H]GSK931145]
- Kd [3]: 1 to 2 nM

Structure (SMILES): Cc1cccc(C)c1C(=O)N[C@@H](c1ccccc1)C1(N(C)C)CCCC1 [GSK931145]
- pIC50 for inhibiting [3H]glycine uptake [4]: 7.58

Structure (SMILES): O=C(N[C@@H](c1ccccc1)[C@@H]1CCCCN1)c1cccc(C(F)(F)F)c1Cl [SSR504734]
- Ki [1, 8]: 24.6 ± 0.8 nM
- pIC50 for inhibiting [3H]glycine uptake [4]: 6.52
- IC50 [2]: 84.5 ± 29.8 nM

Structure (SMILES): CN(CCC(Oc1ccc(-c2ccccc2)cc1)c1ccc(F)cc1)CC(=O)O (centres unmarked) [NFPS/ALX5407, N-[3-(4-fluorophenyl)-3-(4-phenyl-phenoxy)propyl]-sarcosine]
- Type of interaction with binding of [3H]SB-733993 and [3H]GSK931145 [3]: uncompetitive interactions
- Ki [1, 8]: 4.1 ± 0.9 nM
- IC50 [2]: 83.7 ± 30.3 nM

Structure (SMILES): O=C(N[C@@H](c1ccsc1)[C@H]1CCCCN1)c1nccc(C(F)(F)F)c1Cl [Desmethyl-CHIBA-3007, 3-chloro-N-((S)-((R)-piperidin-2-yl)(thiophen-3-yl)methyl)-4-(trifluoromethyl)picolinamide]
- Ki [1, 8]: 35.9 ± 1.3 nM
- IC50 [2]: 187 ± 40 nM

Structure (SMILES): CNCC(=O)O [Sarcosine, sarcosine]
- Ki [1]: 103000 nM
- Ki [1, 8]: 103000 nM
- IC50 [2]: 414000 nM

Structure (SMILES): N[C@@H](COC(c1cccc(F)c1)c1ccccc1OCc1ccccc1)C(=O)O (stereo partly drawn) [ALX1393, O-[(2-benzyloxyphenyl-3-flurophenyl)methyl]-L-serine]
- Ki [1, 8]: 852 ± 56.4 nM

Structure (SMILES): CN1CCCC[C@@H]1[C@@H](NC(=O)c1nccc(C(F)(F)F)c1Cl)c1ccsc1 [[^3H]CHIBA-3007, [^3H]3-chloro-N-((S)-((R)-1-methylpiperidin-2-yl)(thiophen-3-yl)methyl)-4-(trifluoromethyl)picolinamide]
- Kd ([5]; room temperature, 0.3125–10 nM radioligand, n=3, read-out: Kd (apparent equilibrium dissociation constant)): 1.61 ± 0.16 nM

Structure (SMILES): [3H]C([3H])([3H])N1CCCC[C@@H]1[C@@H](NC(=O)c1nccc(C(F)(F)F)c1Cl)c1ccsc1 [[^3H]CHIBA-3007, [^3H]3-chloro-N-((S)-((R)-1-methylpiperidin-2-yl)(thiophen-3-yl)methyl)-4-(trifluoromethyl)picolinamide]
- Nonspecific binding [5]: < 10%
- Time to reach binding equilibrium ([5]; kinetic study, data not shown): less than 5 min
- Specific binding as share of total binding ([5]; over the concentration range 0.3125–10 nM): > 90%
- Bmax (maximal number of binding sites) ([5]; room temperature, n=3): 692.8 fmol/mg protein and 692.8±22.8 fmol/mg protein
- Order of specific binding in brain regions [6]: midbrain > pons > thalamus > cerebellum > striatum > hippocampus > cerebral cortex

Structure (SMILES): [3H]C([3H])([3H])N(C)C1([C@@H](NC(=O)c2c(C)cccc2C)c2ccccc2)CCCC1 [[^3H]GSK931145]
- Specific binding as share of total binding ([3]; at concentrations around Kd): > 90%
- Bmax ([3]; rat brain): around 3000 fmol/mg protein

Structure (SMILES): O=C(N[C@@H](c1cccc(-c2cn[nH]c2)c1)[C@H]1CCCCN1)c1nccc(C(F)(F)F)c1Cl [CHIBA-3008, N-((S)-(3-(1H-pyrazol-4-yl)phenyl)((R)-piperidin-2-yl)methyl)-3-chloro-4-(trifluoromethyl)pyridine-2-carboxamide]
- Ki [1, 8]: 2.2 ± 0.6 nM
- IC50 [7]: 0.2 nM

Structure (SMILES): CN(CCOc1ccc(-c2ccc3c(c2)OCO3)cc1C(C)(C)C)CC(=O)O [LY2365109]
- Ki [1, 8]: 16.2 ± 4.9 nM
- IC50 [2]: 1350 nM
